Measured values from patent US20050107475A1, “Methods of using farnesoid x receptor (frx) agonists” (priority 2002, published 2005).

Assays:
[1] = tested on: FvB mice; details: 1 mg/kg/day, intravenously by osmotically driven implanted pump, vs carrier alone; cited from earlier work
[2] = tested on: primary rat adipocytes; details: added to cultures of primary rat adipocytes; cited from earlier work
[3] = tested on: primary rat adipocytes; details: added to cultures of primary rat adipocytes; cited from earlier work; remark: listed apart in the source
[4] = tested on: human Fibroblast Growth Factor 19 (hFGF19); assay: Differential expression of FGF19 in human hepatocytes treated with FXR agonists (transcript profiling); format: cell-based; details: vs DMSO control
Procedure: The present study utilized differential gene expression analysis as performed by CuraGen Corporation (New Haven, Conn.) using transcript profiling technology. […] In brief, RNA is extracted from samples and cDNA synthesis is carried out. The cDNAs are then digested with multiple pairs of different restriction enzymes (standard set of 96 different pairs of restriction enzymes with 6 base-pair recognition sites (subsequence pairs)), and the digested products are ligated to complementary adapters containing standardized PCR priming sequences. Multiple PCR cycles are carried out using one biotinylated adapter-specific primer and one fluorescently labeled adapter-specific primer. Following PCR amplification, the biotin-labeled DNA is purified on immobilized streptavidin. Denatured single stranded cDNA fragments are then sized using capillary electrophoresis, and the fluorescently labeled fragments are detected by laser excitation. Since the biotin label is needed for purification and the fluorescent label is needed for detection, all analyzed fragments result from restriction digestion with both enzymes.
Differentially expressed peaks are identified by comparing the composite traces of the experimental samples vs. the control samples using bioinformatics algorithms. […]

Row | Compound | food intake [1] | oxygen consumption [1] | release of leptin from the cells [2] | uptake of glucose [3] | Increase in expression of hFGF19 compared to control cells [4] [fold]
1 | recombinant human FGF-19: recombinant human fibroblast growth factor 19 protein | increased food intake | increased oxygen consumption | increase the release of leptin | decrease the uptake of glucose | 
2 | CC(C)c1onc(-c2c(Cl)cccc2Cl)c1COc1ccc(/C=C/c2cccc(C(=O)O)c2)c(Cl)c1 [GW4064X] |  |  |  |  | 36.4
